From publication PMC9230201, “Sustained Consumption of a Decaffeinated Green Coffee Nutraceutical Has Limited Effects on Phenolic Metabolism and Bioavailability in Overweight/Obese Subjects” (Nutrients, 2022)

Columns and labels:
[1] = Urinary excretion of phenolic metabolites after intake of the GCPE nutraceutical; conditions: for Cumulative urinary excretion, Total 0–24 h / Urinary excretion: urine; for Cumulative urinary excretion, Total 0–24 h: mean ± SEM, n = 9
Experimental: (§1) Participants attended the Human Nutrition Unit (HNU) at the Institute of Food Science, Technology and Nutrition (ICTAN-CSIC) on two consecutive days at the beginning of the intervention (week 0) and also on two consecutive days at the end of the study, after consuming daily two doses of the GCPE nutraceutical, providing 600 mg/d phenols, during two months (week 8). […] A licensed health care professional placed an intravenous catheter in the subjects′ nondominant arm and collected a fasting blood sample (baseline, 0 h). Then, subjects drank the soluble GCPE nutraceutical dissolved in 200 mL of water. […] On the sampling days, volunteers remained at the HNU, where a (poly)phenol-free diet was provided. Half an hour after consuming the nutraceutical, volunteers ate a breakfast consisting of ham, cheese, white bread, and a yogurt. Lunch (paella, bread, and yogurt) and an afternoon snack (muffin and yogurt) were eaten 5 and 9 h, respectively, after consuming the nutraceutical. Water and isotonic beverages were freely available. […] The same protocol was followed during visits at the end of the 8-week intervention. On each occasion, two days before each visit to the HNU, subjects consumed a low (poly)phenol diet free of foods containing hydroxycinnamates such as coffee, herbal teas, red wine, artichokes, whole grain cereals, vegetables, fruits and fruit juices, and dried fruits. Only banana, watermelon, cantaloupes, and potatoes were allowed.
(§2) Blood samples were immediately centrifuged (10 min, 3000 rpm, 4 °C) to obtain plasma. […] All biological samples were stored at −80 °C until analysis.
(§3) To extract plasma metabolites, 10 µL of 50% (v/v) aqueous formic acid, and 900 µL cold acetonitrile containing 50 µL of 10% (w/v) ascorbic acid were added to 400 µL defrosted plasma. Samples were vortexed and centrifuged (14,000 rpm, 10 min, 4 °C), repeating the extraction and combining the two supernatants, which were reduced to dryness under nitrogen [13]. Dried samples were resuspended in 150 µL of 0.1% aqueous formic acid (containing 10% acetonitrile acidified with 0.1% formic acid), centrifuged (15 min, 14,000 rpm, 4 °C), and the supernatant collected. Urine samples were diluted 1:1 with Milli-Q water and centrifuged (14,000 rpm, 20 min, 4 °C) prior to analysis. Phosphate-buffered saline (3 mL) was added to a representative 300 mg sample of thawed feces, homogenized in an ultrasound bath during 10 min, centrifuged (14,000 rpm, 20 min, 4 °C), and the supernatants collected.
(§4) Mobile phase A was 0.1% formic acid in Milli-Q water, and mobile phase B was acetonitrile containing 0.1% formic acid at a 0.3 mL/min flow rate. […] Metabolites were identified based on their retention time using authentic standards when possible. […] Urine concentration of excreted metabolites was normalized to the total volume excreted in each studied interval.
(§5) Plasma (30 µL), urine (5 µL) and fecal extracts (5 µL) were filtered through 0.45 µm
(§6) cellulose-acetate membrane filters and injected into an Agilent 1200 series LC system
(§7) ESI-Jet Stream Technology (Agilent Technologies). A reverse-phase Ascentis Express
(§8) C18 (15 cm x 3 mm, 2.7 µm) column (Sigma-Aldrich Quimica, Madrid), preceded by a
(§9) phase A was 0.1% formic acid in Milli-Q water, and mobile phase B was acetonitrile
(§10) containing 0.1% formic acid at a 0.3 mL/min flow rate. The gradient started with 10% B
(§11) at 0 min, 30% B at 10 min, 40% B at 15 min, reaching 50% B at 20 min. The starting
(§12) gradient was then re-established in 2 min and maintained for 8 min to re-equilibrate the

[2] = Fecal excretion of phenolic metabolites after intake of the GCPE nutraceutical; conditions: feces
Experimental: as §1, §2, §3, §4, §5, §6, §7, §8, §9, §10, §11, §12

[3] = Plasma pharmacokinetics of phenolic metabolites after intake of the GCPE nutraceutical (LC-MS-QToF); conditions: for Cmax: mean ± SEM, n = 9; for AUC(0-t) / Tmax: 300 mg hydroxycinnamic acids; for AUC(0-t): AUC0–24h; for Tmax: Tmax (h) or Range
Experimental: Participants attended the Human Nutrition Unit (HNU) at the Institute of Food Science, Technology and Nutrition (ICTAN-CSIC) on two consecutive days at the beginning of the intervention (week 0) and also on two consecutive days at the end of the study, after consuming daily two doses of the GCPE nutraceutical, providing 600 mg/d phenols, during two months (week 8). On each occasion, on the first visit day (Figure 1), subjects arrived at the HNU after an overnight (12 h) fast and provided a urine sample. A licensed health care professional placed an intravenous catheter in the subjects′ nondominant arm and collected a fasting blood sample (baseline, 0 h). Then, subjects drank the soluble GCPE nutraceutical dissolved in 200 mL of water. Subsequently, blood samples were collected in EDTA-coated tubes at 0.5, 1, 1.5, 2, 3, 4, 6, 8, 10, and 11 h. On the sampling days, volunteers remained at the HNU, where a (poly)phenol-free diet was provided. Half an hour after consuming the nutraceutical, volunteers ate a breakfast consisting of ham, cheese, white bread, and a yogurt. Lunch (paella, bread, and yogurt) and an afternoon snack (muffin and yogurt) were eaten 5 and 9 h, respectively, after consuming the nutraceutical. Water and isotonic beverages were freely available. Volunteers were instructed to eat a (poly)phenol-free dinner that night and to attend the HNU on the next day after a 12 h fast. Then, a final blood sample was obtained from the antecubital vein 24 h after consuming the nutraceutical. The same protocol was followed during visits at the end of the 8-week intervention. On each occasion, two days before each visit to the HNU, subjects consumed a low (poly)phenol diet free of foods containing hydroxycinnamates such as coffee, herbal teas, red wine, artichokes, whole grain cereals, vegetables, fruits and fruit juices, and dried fruits. Only banana, watermelon, cantaloupes, and potatoes were allowed.
as §2
To extract plasma metabolites, 10 µL of 50% (v/v) aqueous formic acid, and 900 µL cold acetonitrile containing 50 µL of 10% (w/v) ascorbic acid were added to 400 µL defrosted plasma. Samples were vortexed and centrifuged (14,000 rpm, 10 min, 4 °C), repeating the extraction and combining the two supernatants, which were reduced to dryness under nitrogen [13]. Dried samples were resuspended in 150 µL of 0.1% aqueous formic acid (containing 10% acetonitrile acidified with 0.1% formic acid), centrifuged (15 min, 14,000 rpm, 4 °C), and the supernatant collected.
A reverse-phase Ascentis Express C18 (15 cm × 3 mm, 2.7 µm) column (Sigma-Aldrich Quimica, Madrid, Spain), preceded by a Supelco 55215-U guard column (3 mm × 5 mm, 2.7 µm), was used for separation. Mobile phase A was 0.1% formic acid in Milli-Q water, and mobile phase B was acetonitrile containing 0.1% formic acid at a 0.3 mL/min flow rate. […] Metabolites were identified based on their retention time using authentic standards when possible.

[4] = week 0, GCPE nutraceutical with 300 mg hydroxycinnamic acids
[5] = week 0, first peak where biphasic
[6] = week 8, GCPE nutraceutical with 300 mg hydroxycinnamic acids
[7] = week 8, first peak where biphasic
[8] = human, oral, week 0, first peak where biphasic
[9] = human, oral, week 8, first peak where biphasic
[10] = human, oral, 300 mg, Cmax, week 0, GCPE nutraceutical with 300 mg hydroxycinnamic acids
[11] = human, oral, 300 mg, Cmax, week 8, GCPE nutraceutical with 300 mg hydroxycinnamic acids
[12] = week 8, listed as 3′-hydroxyphenylacetic acid

SMILES | Cumulative urinary excretion, Total 0–24 h ([1]; week 0) [µmol] | Cumulative urinary excretion, Total 0–24 h ([1]; week 8) [µmol] | Amount excreted in urine, 0- 3 h ([1]; week 0, interval 0–3 h) [µmol] | Amount excreted in urine, 3-6 h ([1]; week 0, interval 3–6 h) [µmol] | Amount excreted in urine, 6-9 h ([1]; week 0, interval 6–9 h) [µmol] | Amount excreted in urine, 9-11 h ([1]; week 0, interval 9–11 h) [µmol] | Amount excreted in urine, 11-24 h ([1]; week 0, interval 11–24 h) [µmol] | Amount excreted in urine, 0- 3 h ([1]; week 8, interval 0–3 h) [µmol] | Amount excreted in urine, 3-6 h ([1]; week 8, interval 3–6 h) [µmol] | Amount excreted in urine, 6-9 h ([1]; week 8, interval 6–9 h) [µmol] | Amount excreted in urine, 9-11 h ([1]; week 8, interval 9–11 h) [µmol] | Amount excreted in urine, 11-24 h ([1]; week 8, interval 11–24 h) [µmol] | Amount of fecal metabolite excreted at 0 h ([2]; week 0, mean ± SEM, n = 9) [µmol/g] | Amount of fecal metabolite excreted at 0 h ([2]; week 8) [µmol/g] | Amount of fecal metabolite excreted at 24 h ([2]; week 0) [µmol/g] | Amount of fecal metabolite excreted at 24 h ([2]; week 8) [µmol/g] | AUC(0-t) ([3]; human, oral, week 0) [µM·h] | AUC(0-t) ([3]; human, oral, week 8) [µM·h] | Tmax [3, 8] [h] | Tmax [3, 9] [h] | also measured
COc1cc(CC(=O)O)ccc1O [4′-Hydroxy-3′-methoxyphenylacetic acid] | 13.2 ± 0.9 | 12 ± 1 | 1.3 ± 0.2 | 0.9 ± 0.2 | 0.9 ± 0.2 | 0.7 ± 0.1 | 3.6 ± 0.3 | 1.5 ± 0.2 | 0.8 ± 0.1 | 1 ± 0.2 | 0.68 ± 0.15 | 2.9 ± 0.7 | 0.007 ± 0.005 | 0.0006 ± 0.0006 | 0.02 ± 0.01 | 0.003 ± 0.003 | – | – | – | – | AUC0–24h ([3]; week 0): 1.4 ± 0.9 µM/min; Cmax [3, 4]: 140 ± 60 nM; Tmax (h) or Range [3, 5]: 7 ± 4 h; AUC0–24h ([3]; week 8): 1.5 ± 0.8 µM/min; Cmax [3, 6]: 120 ± 50 nM; Tmax (h) or Range [3, 7]: 4 ± 3 h
O=C(O)c1cccc(O)c1 [3-Hydroxybenzoic acid] | 0.91 ± 0.07 | 1.0 ± 0.1 | 0.09 ± 0.02 | 0.05 ± 0.01 | 0.08 ± 0.02 | 0.064 ± 0.009 | 0.26 ± 0.02 | 0.1 ± 0.01 | 0.06 ± 0.01 | 0.11 ± 0.02 | 0.07 ± 0.02 | 0.19 ± 0.04 | 0.03 ± 0.02 | 0.020 ± 0.008 | 0.03 ± 0.01 | 0.020 ± 0.007 | 0.7 ± 0.3 | 0.8 ± 0.3 | 8 ± 1 | 4 ± 1 | Cmax [3, 10]: 80 ± 20 nM; Cmax [3, 11]: 100 ± 30 nM
O=C(O)Cc1cccc(O)c1 [3′-Hydroxyphenylacetic acid] | 12 ± 3 | 9 ± 2 | 1.6 ± 0.5 | 1 ± 0.2 | 0.8 ± 0.2 | 0.53 ± 0.09 | 2.5 ± 0.7 | 1 ± 0.2 | 0.7 ± 0.2 | 0.7 ± 0.1 | 0.6 ± 0.2 | 1.8 ± 0.6 | 0.31 ± 0.09 | 0.18 ± 0.08 | 0.21 ± 0.08 | 0.11 ± 0.04 | – | – | – | – | Amount excreted in urine, TOTAL ([1]; week 0, Table S5 total): 12 ± 3 µmol; Amount of fecal metabolite excreted at 0 h ([2]; week 0, mean ± SEM, n = 9, listed as 3′-hydroxyphenylacetic acid): 0.31 µmol/g; Amount of fecal metabolite excreted at 0 h [2, 12]: 0.18 µmol/g; Amount of fecal metabolite excreted at 24 h ([2]; week 0, listed as 3′-hydroxyphenylacetic acid): 0.21 µmol/g; Amount of fecal metabolite excreted at 24 h [2, 12]: 0.11 µmol/g; AUC0–24h ([3]; week 0): 2.6 ± 0.9 µM/min; Cmax [3, 4]: 200 ± 70 nM; Tmax (h) or Range [3, 5]: 8 ± 2 h; AUC0–24h ([3]; week 8): 1.6 ± 0.6 µM/min; Cmax [3, 6]: 150 ± 50 nM; Tmax (h) or Range [3, 7]: 5 ± 1 h
O=C(O)c1ccc(O)cc1 [4-Hydroxybenzoic acid] | 1.3 ± 0.2 | 1.01 ± 0.09 | 0.3 ± 0.2 | 0.11 ± 0.02 | 0.1 ± 0.02 | 0.09 ± 0.01 | 0.29 ± 0.04 | 0.14 ± 0.02 | 0.1 ± 0.01 | 0.09 ± 0.02 | 0.08 ± 0.02 | 0.26 ± 0.03 | 0.004 ± 0.004 | 0.006 ± 0.004 | 0.0006 ± 0.0004 | 0.01 ± 0.01 | 0.9 ± 0.2 | 0.5 ± 0.2 | 7 ± 2 | 5 ± 3 | Urinary excretion ([1]; week 0): 1.3 µmol/24 h; Urinary excretion ([1]; week 8): 1.01 µmol/24 h; Cmax [3, 10]: 90 ± 10 nM; Cmax [3, 11]: 80 ± 10 nM

Further lines, with some results ahead:

Cumulative urinary excretion, Total 0–24 h ([1]; week 0) [µmol] | Cumulative urinary excretion, Total 0–24 h ([1]; week 8) [µmol] | Amount excreted in urine, 0- 3 h ([1]; week 0, interval 0–3 h) [µmol] | Amount excreted in urine, 3-6 h ([1]; week 0, interval 3–6 h) [µmol] | Amount excreted in urine, 6-9 h ([1]; week 0, interval 6–9 h) [µmol] | Amount excreted in urine, 9-11 h ([1]; week 0, interval 9–11 h) [µmol] | Amount excreted in urine, 11-24 h ([1]; week 0, interval 11–24 h) [µmol] | Amount excreted in urine, 0- 3 h ([1]; week 8, interval 0–3 h) [µmol] | Amount excreted in urine, 3-6 h ([1]; week 8, interval 3–6 h) [µmol] | Amount excreted in urine, 6-9 h ([1]; week 8, interval 6–9 h) [µmol] | Amount excreted in urine, 9-11 h ([1]; week 8, interval 9–11 h) [µmol] | Amount excreted in urine, 11-24 h ([1]; week 8, interval 11–24 h) [µmol] | Amount of fecal metabolite excreted at 0 h ([2]; week 0, mean ± SEM, n = 9) [µmol/g] | Amount of fecal metabolite excreted at 0 h ([2]; week 8) [µmol/g] | Amount of fecal metabolite excreted at 24 h ([2]; week 0) [µmol/g] | Amount of fecal metabolite excreted at 24 h ([2]; week 8) [µmol/g] | SMILES | AUC(0-t) ([3]; human, oral, week 0) [µM·h] | AUC(0-t) ([3]; human, oral, week 8) [µM·h] | Tmax [3, 8] [h] | Tmax [3, 9] [h] | also measured
0.5 ± 0.2 | 1.1 ± 0.4 | 0.03 ± 0.02 | 0.007 ± 0.007 | 0.08 ± 0.04 | 0.05 ± 0.02 | 0.11 ± 0.05 | 0.08 ± 0.07 | 0.03 ± 0.02 | 0.07 ± 0.05 | 0.09 ± 0.04 | 0.07 ± 0.04 | 0.013 ± 0.004 | 0.018 ± 0.003 | 0.019 ± 0.007 | 0.014 ± 0.003 | COc1cc(CCC(=O)O)ccc1O [DHFA, 3-(4′-Hydroxy-3′-methoxyphenyl)propanoic acid] | 2.2 ± 0.6 | 1.8 ± 0.3 | 7.6 ± 0.4 | 8.4 ± 0.6 | Cmax [3, 10]: 300 ± 100 nM; Cmax [3, 11]: 250 ± 60 nM
0.4 ± 0.2 | 0.4 ± 0.1 | 0.2 ± 0.1 | 0.15 ± 0.05 | 0.02 ± 0.01 | 0.003 ± 0.002 | – | 0.21 ± 0.08 | 0.13 ± 0.03 | 0.03 ± 0.01 | – | 0.02 ± 0.02 | – | 0.001 ± 0.001 | – | 0.0004 ± 0.0004 | COc1cc(/C=C/C(=O)OC2[C@H](O)CC(O)(C(=O)O)C[C@H]2O)ccc1O (stereo partly drawn) [4-Feruloylquinic acid] | – | – | – | – | AUC0–24h ([3]; week 0): 0.06 ± 0.01 µM/min; Cmax [3, 4]: 29 ± 4 nM; Tmax (h) or Range [3, 5]: 0.9 ± 0.1 h; AUC0–24h ([3]; week 8): 0.07 ± 0.01 µM/min; Cmax [3, 6]: 31 ± 4 nM; Tmax (h) or Range [3, 7]: 0.9 ± 0.1 h
16 ± 2 | 31 ± 5 | 0.5 ± 0.1 | 0.37 ± 0.09 | 2.3 ± 0.8 | 2.7 ± 0.6 | 7 ± 1 | 1 ± 0.4 | 1.4 ± 0.4 | 3.8 ± 0.9 | 3.1 ± 0.8 | 6 ± 2 | 0.011 ± 0.007 | 0.005 ± 0.002 | 0.008 ± 0.006 | 0.0001 ± 0.0001 | O=C(O)CCc1ccc(O)c(O)c1 [DHCA, 3-(3′,4′-Dihydroxyphenyl)propanoic acid] | 2 ± 0.6 | 2.1 ± 0.5 | 10.2 ± 0.3 | 9.4 ± 0.5 | Urinary excretion ([1]; week 0): 16 µmol/24 h; Urinary excretion ([1]; week 8): 31 µmol/24 h; Amount excreted in urine, TOTAL ([1]; week 0, Table S5 total): 16 ± 2 µmol; Amount excreted in urine, 0 h ([1]; week 8, 0 h (before intake on sampling day)): 15 ± 4 µmol; Amount excreted in urine, TOTAL ([1]; week 8, Table S6 total): 31 ± 5 µmol; Cmax [3, 10]: 220 ± 60 nM; Cmax [3, 11]: 220 ± 50 nM
